Converted amounts (≈) assume the structure as drawn. Read-outs that look alike come from different tables or passages of the source. Marks after values point to notes of the source that are not given here.
How the values were obtained:
M. tuberculosis = test: MIC determination, microbroth dilution, M. tuberculosis; type: cell-based, Mycobacterium tuberculosis; settings: for MIC: Mycobacterium tuberculosis
[1] = system: M. abscessus (ATCC 19977); test: MIC, non-tuberculosis mycobacteria: M. abscessus; type: cell-based; settings: Mycobacteroides abscessus, ATCC19977, 72 h; broth dilution, visual inspection, 3 days; range of at least two independent experiments; read-out: Minimum Inhibitory Concentration, M. abscessus
M. avium (ATCC 25291) = test: MIC, non-tuberculosis mycobacteria: M. avium; type: cell-based; settings: Mycobacterium avium, ATCC25291, 168 h; broth dilution, visual inspection, 7 days; read-out: Minimum Inhibitory Concentration, M. avium
M. kansasii (ATCC 12478) = test: MIC, non-tuberculosis mycobacteria: M. kansasii; type: cell-based; settings: Mycobacterium kansasii, ATCC12478, 168 h; broth dilution, visual inspection, 7 days; read-out: Minimum Inhibitory Concentration, M. kansasii
M. fortuitum (ATCC 6841) = test: MIC, non-tuberculosis mycobacteria: M. fortuitum; type: cell-based; settings: Mycolicibacterium fortuitum, ATCC6841, 72 h; broth dilution, visual inspection, 3 days; read-out: Minimum Inhibitory Concentration, M. fortuitum
M. ulcerans (ATCC 35840) = test: MIC by agar proportion method: M. ulcerans; type: cell-based; settings: Mycobacterium ulcerans, ATCC35840, 672 h; agar proportion method, 4 weeks; read-out: Minimum Inhibitory Concentration, M. ulcerans
M. tuberculosis H37Rv = test: Minimum bactericidal concentration determination; type: cell-based, Mycobacterium tuberculosis
[2] = system: hypoxic M. tuberculosis strain H37Rv; test: NRP bacteria under hypoxia (rapid anaerobic dormancy model); type: cell-based, Mycobacterium tuberculosis
[3] = system: M. tuberculosis strain H37Rv (mid-log and nutrient-starved); test: Nutrient starvation model of nonreplicating persisters; type: cell-based, Mycobacterium tuberculosis
H37Rv-wt = test: microbe, parasite or virus in culture; type: cell-based, M. tuberculosis; settings: Mycobacterium tuberculosis
[4] = system: Staphylococcus aureus (ATCC 29213); test: MIC, spectrum of activity: S.a.; type: cell-based; settings: ATCC29213, read-out: Minimum Inhibitory Concentration, S.a
[5] = system: Bacillus subtilis (ATCC 23857); test: MIC, spectrum of activity: B.s.; type: cell-based; settings: ATCC23857, read-out: Minimum Inhibitory Concentration, B.s.
[6] = system: Streptococcus pyogenes (ATCC 700294); test: MIC, spectrum of activity: S.py; type: cell-based; settings: ATCC700294, read-out: Minimum Inhibitory Concentration, S. Py.
[7] = system: Enterococcus faecalis (ATCC 33186); test: MIC, spectrum of activity: E.f.; type: cell-based; settings: ATCC33186, read-out: Minimum Inhibitory Concentration, E.f.
[8] = system: Bacillus anthracis sterne 34F2; test: microbe, parasite or virus in culture; type: cell-based; settings: STERNE34F2, read-out: Minimum Inhibitory Concentration, B.a.
[9] = system: Burkholderia cepacia (ATCC 25416); test: MIC, spectrum of activity: B.c.; type: cell-based; settings: ATCC25416, read-out: Minimum Inhibitory Concentration, B.c.
[10] = system: Stenotrophomonas maltophilia (ATCC 13637); test: MIC, spectrum of activity: S.m.; type: cell-based; settings: ATCC13637, read-out: Minimum Inhibitory Concentration, S.m.
[11] = system: Escherichia coli (ATCC 700926); test: MIC, spectrum of activity: E.c.; type: cell-based; settings: ATCC700926, read-out: Minimum Inhibitory Concentration, E.c.
[12] = system: Proteus mirabilis(ATCC 25933); test: MIC, spectrum of activity: Proteus mirabilis; type: cell-based; settings: ATCC25933
[13] = system: Proteus vulgaris (ATCC 33420); test: MIC, spectrum of activity: Proteus vulgaris; type: cell-based; settings: ATCC33420
[14] = system: Klebsiella pneumoniae (ATCC 33495); test: MIC, spectrum of activity: Klebsiella pneumoniae; type: cell-based; settings: ATCC33495
[15] = system: Acinetobacter baumannii (ATCC 19606); test: MIC, spectrum of activity: Acinetobacter baumannii; type: cell-based; settings: ATCC19606
[16] = rats; IV 10 mg/kg and oral 100 mg/kg
M. tuberculosis Erdman = settings: for Log10CFU Reduction (SEM), lungs / Log10CFU Reduction (SEM), spleen: vs untreated
in vitro = settings: mouse, microsomes
[17] = cited from earlier work
[18] = mouse, plasma; cited from earlier work
[19] = rat, in vivo, cited from earlier work
[20] = In vitro cytotoxicity against Vero cells; settings: African green monkey, Vero cells (kidney epithelial cells, ATCC CCL-81)
Vero cells = test: In vitro cytotoxicity against Vero cells
[21] = group 1: 9a 300 mg/kg QD oral, 9 days, in 0.5% methylcellulose in DI-H2O
[22] = group 2: 9a 300 mg/kg QD oral, 9 days, in 30% Captisol in DI-H2O
[23] = group 3: 9a 300 mg/kg QD oral, 9 days, in 10% Vitamin E TPGS in DI-H2O
[24] = group 4: 9a 300 mg/kg QD oral, 9 days, in 0.5% Tween 80 in DI-H2O
[25] = group 5: 9a 300 mg/kg QD oral, 9 days, in 20% cyclodextrin in DI-H2O
[26] = group 6: 9a 300 mg/kg QD oral, 9 days, in cold PEG (50:35:15 H2O:PEG300:PG)

SMILES: O=[N+]([O-])c1ccc(C2=NOC(c3ccc(N4CCC(Oc5ccc(OC(F)(F)F)cc5)CC4)cc3)C2)o1 (stereo not drawn) [Compound 9a, 3-(5-Nitrofuran-2-yl)-5-(4-(4-(4-(trifluoromethoxy)phenoxy)piperidin-1-yl)phenyl)-4,5-dihydroisoxazole]
- fold more potent than PA-824 (MIC) (M. tuberculosis; M. tuberculosis MIC compared with PA-824): 20 fold
- MIC (M. tuberculosis; 168 h, read-out: M. tb. MIC): 0.024 µg/mL
- MIC (M. tuberculosis; M. tuberculosis, […], read-out: MIC): 0.046 µM
- MIC [1]: 12.5 µg/mL (≈ 24.2 µM)
- MIC (M. avium (ATCC 25291)): 200 µg/mL (≈ 387 µM)
- MIC (M. kansasii (ATCC 12478)): 3.13 to 6.25 µg/mL (≈ 6.05 to 12.1 µM)
- MIC (M. fortuitum (ATCC 6841)): 6.25 to 12.5 µg/mL (≈ 12.1 to 24.2 µM)
- MIC (M. ulcerans (ATCC 35840)): 0.02 to 0.05 µg/mL (≈ 0.0387 to 0.0966 µM)
- MBC (M. tuberculosis H37Rv): 3.13–6.25
- Classification (M. tuberculosis H37Rv; cidal or static from MBC versus MIC): Static (static (MBC/MIC >4))
- % Growth vs. Control [2]: <0.1%
- killing of hypoxic bacilli ([2]; 10 µg/mL, NRP-2 bacilli): > 99.9%
- reduction in viability (killing) of actively growing culture [3]: 80%
- reduction in viability of nutrient starved bacilli [3]: 80%
- MIC (H37Rv-wt): 0.025 µg/mL (≈ 0.0483 µM)
- MIC [4]: 50 µg/mL (≈ 96.6 µM)
- MIC [5]: 100 µg/mL (≈ 193 µM)
- MIC [6]: 200 µg/mL (≈ 387 µM)
- MIC [7]: > 200 µg/mL
- MIC [8]: 12.5 µg/mL (≈ 24.2 µM)
- MIC [9]: 50 µg/mL (≈ 96.6 µM)
- MIC [10]: 25 µg/mL (≈ 48.3 µM)
- MIC [11]: > 200 µg/mL
- MIC [12]: > 200 µg/mL
- MIC [13]: > 200 µg/mL
- MIC [14]: > 200 µg/mL
- MIC [15]: > 200 µg/mL
- Toxicity by intravenous and oral dosing [16]: non-toxic
- reduction of bacterial load in lungs (M. tuberculosis Erdman; GKO mice, 300 mg/kg oral daily, 9 days, across formulations): 91–97%
- reduction in bacillary load, lungs and spleens (M. tuberculosis Erdman; GKO mice, after 9 days of treatment): > 90%
- tolerability (M. tuberculosis Erdman; GKO mice, daily oral administration at 300 mg/kg, 9 days, each of six formulations): well tolerated
- Log10CFU Reduction (SEM), lungs (M. tuberculosis Erdman; [21]): 1.06 (0.18) Log10CFU
- Log10CFU Reduction (SEM), lungs (M. tuberculosis Erdman; [22]): 1.30 (0.20) Log10CFU
- Log10CFU Reduction (SEM), lungs (M. tuberculosis Erdman; [23]): 1.47 (0.18) Log10CFU
- Log10CFU Reduction (SEM), lungs (M. tuberculosis Erdman; [24]): 1.38 (0.16) Log10CFU
- Log10CFU Reduction (SEM), lungs (M. tuberculosis Erdman; [25]): 1.08 (0.15) Log10CFU
- Log10CFU Reduction (SEM), lungs (M. tuberculosis Erdman; [26]): 1.10 (0.21) Log10CFU
- Log10CFU (SEM), lungs (M. tuberculosis Erdman; [21]): 7.01 (0.11) Log10CFU
- Log10CFU (SEM), lungs (M. tuberculosis Erdman; [22]): 6.77 (0.14) Log10CFU
- Log10CFU (SEM), lungs (M. tuberculosis Erdman; [23]): 6.61 (0.11) Log10CFU
- Log10CFU (SEM), lungs (M. tuberculosis Erdman; [24]): 6.69 (0.07) Log10CFU
- Log10CFU (SEM), lungs (M. tuberculosis Erdman; [25]): 6.99 (0.06) Log10CFU
- Log10CFU (SEM), lungs (M. tuberculosis Erdman; [26]): 6.99 (0.15) Log10CFU
- Log10CFU Reduction (SEM), spleen (M. tuberculosis Erdman; [21]): 0.95 (0.18) Log10CFU
- Log10CFU Reduction (SEM), spleen (M. tuberculosis Erdman; [22]): 1.48 (0.17) Log10CFU
- Log10CFU Reduction (SEM), spleen (M. tuberculosis Erdman; [23]): 1.77 (0.27) Log10CFU
- Log10CFU Reduction (SEM), spleen (M. tuberculosis Erdman; [24]): 1.17 (0.18) Log10CFU
- Log10CFU Reduction (SEM), spleen (M. tuberculosis Erdman; [25]): 1.44 (0.16) Log10CFU
- Log10CFU Reduction (SEM), spleen (M. tuberculosis Erdman; [26]): 1.03 (0.20) Log10CFU
- Log10CFU (SEM), spleen (M. tuberculosis Erdman; [21]): 6.25 (0.11) Log10CFU
- Log10CFU (SEM), spleen (M. tuberculosis Erdman; [22]): 5.72 (0.09) Log10CFU
- Log10CFU (SEM), spleen (M. tuberculosis Erdman; [23]): 5.43 (0.23) Log10CFU
- Log10CFU (SEM), spleen (M. tuberculosis Erdman; [24]): 6.03 (0.12) Log10CFU
- Log10CFU (SEM), spleen (M. tuberculosis Erdman; [25]): 5.76 (0.08) Log10CFU
- Log10CFU (SEM), spleen (M. tuberculosis Erdman; [26]): 6.17 (0.14) Log10CFU
- half-life (in vitro): 5.06 h
- Solubility (pH 7.4) [17]: 2.7 ^h µg/mL
- Plasma Protein binding [18]: 99.9 ^h %
- Vd ([19]; iv, 10 mg/kg): 6.72 (1.10) L/kg
- fe (fraction excreted unchanged in urine) ([19]; iv, 10 mg/kg): 0.04 (0.01) %
- AUC0-∞ ([19]; po, 100 mg/kg): 10.2 (9.1) mg h/L
- Cmin,24 h ([19]; po, 100 mg/kg): 0.17 (0.16) mg/L
- Cmax [19]: 850 ng/mL
- Cmin,24 h [19]: 0.17 µg/mL
- IC50 [20]: 19.4 µg/mL (≈ 37.5 µM)
- Selective Index (Cytox/MIC) (Vero cells): 808

From article PMC3914891, “Pentacyclic Nitrofurans with In Vivo Efficacy and Activity against Nonreplicating Mycobacterium tuberculosis” (PLoS ONE, 2014)
